Results from US6787552B2, “PPAR delta activators” (Nippon Chemiphar Co., Ltd., priority 2000, dated 2004).
“And” between values parts separate entries of the source, which are not always exact repeats. Identical values can stand only once.

Legend:
Format in all cases: cell-based
PPARδ = molecular target: T1, PPARδ (Homo sapiens, UniProt Q03181); assay: PPARδ transactivation activity (GAL4-hPPARδ LBD / UASx4-TK-LUC reporter in CV-1 cells); conditions: for Emax: CV-1, 40 h, in the manner as described in Example 9, Table 26, read-out: PPARδ (PPAR activating power); for PPARδ transactivation activity: a relative value (control = 100%): compound at 10^−5 M, Table 25; for activity to PPARδ relative to activity to PPARα and γ (selectivity): GAL4-hPPAR LBD reporter, relative activities vs control reagents
T1 construct: A chimeric receptor expression plasmid (GAL4-hPPARδ LBD); expressed in transfected cells; host or cells: CV-1 cells
T1 sequence (Q03181 211-439 limits assumed): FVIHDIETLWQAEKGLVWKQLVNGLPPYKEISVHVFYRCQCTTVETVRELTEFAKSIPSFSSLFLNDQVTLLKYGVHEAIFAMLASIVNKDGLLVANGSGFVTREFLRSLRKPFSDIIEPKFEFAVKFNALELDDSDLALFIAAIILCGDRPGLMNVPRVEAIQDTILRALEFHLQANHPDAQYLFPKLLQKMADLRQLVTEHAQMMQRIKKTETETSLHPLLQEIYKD
Procedure: A chimeric receptor expression plasmid (GAL4-hPPARδ LBD), a reporter plasmid (UASx4-TK-LUC) and β-galactosidase (β-GAL) are transfected into CV-1 cells by utilizing a lipofection reagent DMRIE-C (Life Technologies).
(§1) (1) Measurement of PPARα,γ,δ Transactivation Activity
CV-1 was obtained from Tohoku University Aging Medical Laboratory, Medical Cell Collection Center.
(§2) CV-1 cells were seeded in 24 well culture plates at 2×10^5 cells per well, and cultured for 24 hours using 4%-fetal bovine serum(FBS)-added OPTI-MEM I Reduced Serum Medium (Life Technologies, 500 μL/well). Subsequently, the cells were washed with non serum-added OPTI-MEM. To the washed cells were added DNA-containing solution [the following components were contained in the one well solution (250 μl): 0.03 μg of GAL4-hPPARδ LBD, 0.25 μg of UASx4-TK-LUC, 0.35 μg of βGAL, and 2 μL of lipofection reagent, DMRIE-C (Life Technologies). These components were dissolved in OPTI-MEM and allowed to stand for 30 minutes at room temperature]. The cells were incubated for 5 hours at 37° C.
(§3) The cells were then incubated for 40 hours in 500 μL of fresh OPTI-MEM containing 4% FBS and the test compound (dissolved in 100% DMSO to reach a final concentration: 10^−4M or 10^−5M).
(§4) The culture medium was removed and the cells were washed with PBS twice. Cell lysates were produced using a solubilizing buffer (25 mM Tris-PO4 (pH 7.8), 15%v/v glycerol, 2% CHAPS, 1% Lecithin, 1% BSA, 4 mM EGTA (pH 8.0), 8 mM MgCl2, 1 mM DTT). A portion (20 μL) of the solution was transferred onto a 96-well plate. Subsequently, 100 μL of luciferase substrate solution (Piccagene: available from Nippon Gene Co., Ltd.) was added, and a luminous intensity per one sec. (luciferase activity) was measured by means of MLR-100 type Microluminoreader (available from Corona Electrics Co., Ltd.). Further, the activity caused by […] incorporation which was incorporated into the cells simultaneously with the incorporation of the luciferase gene was measured, for correcting variation of luciferase activity by the addition of the compound, utilizing the transfection efficiency of the incorporated gene. β-Galactosidase activity was measured by the following method: 50 μL of the solubilized sample was placed on another 96-well plate; 10 μL of ONPG (2-nitrophenyl-β-galactopyranoside) solution was added; incubation was carried out for 5 minutes at room temperature; 50 μL of a reaction stopping solution (1M sodium carbonate solution) was added; and the absorbance at 414 nm was measured.

PPARγ = molecular target: T2, PPARγ (Homo sapiens, UniProt P37231); assay: PPARγ transactivation activity (GAL4-hPPARγ LBD / UASx4-TK-LUC reporter in CV-1 cells); conditions: for Emax: CV-1, in the manner as described in Example 9, Table 26, read-out: PPARγ (PPAR activating power); for PPARγ transactivation activity: a relative value (control = 100%): compound at 10^−5 M, CV-1 cells, Table 25
T2 construct: Receptor expression plasmid (GAL4-hPPARα, LBD GAL4-hPPARγ LBD, GAL4-hPPARδ LBD); expressed in transfected cells; host or cells: CV-1 cells
T2 sequence (P37231 238-503 limits assumed): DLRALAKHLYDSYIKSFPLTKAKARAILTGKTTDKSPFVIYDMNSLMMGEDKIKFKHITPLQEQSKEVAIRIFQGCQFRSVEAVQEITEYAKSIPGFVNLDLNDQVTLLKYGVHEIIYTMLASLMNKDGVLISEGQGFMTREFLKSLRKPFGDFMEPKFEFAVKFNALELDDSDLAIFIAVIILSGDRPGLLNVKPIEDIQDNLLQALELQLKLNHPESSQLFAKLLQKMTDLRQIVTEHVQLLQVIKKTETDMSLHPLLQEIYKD
Procedure: In the same manner, relative ligand activities to PPARδ and γ transactivation activitis are calculated (see the below-mentioned Example 9).
as §1
(§5) PPARα,γ,δ transactivation activity of each compound [Examples 1-6 and known PPARδ agonist (L-16504: Berger, J., et al. (1999), J. Biol. Chem., 274:6718-6725)] was measured in the manner described below.
(§6) CV-1 was obtained from Tohoku University Aging Medical Laboratory, Medical Cell Collection Center. All test compounds were dissolved in dimethylsulfoxide (DMSO) to give a test sample of 0.1% concentration.
(§7) Receptor expression plasmid (GAL4-hPPARα, LBD GAL4-hPPARγ LBD, GAL4-hPPARδ LBD), Reporter plasmid (UASx4-TK-LUC), and β-galactosidase expression plasmid (βGAL) similar to Kliewer, S. A., et al., ((1992) Nature, 358:771-774) were employed.
as §2, §3, §4

PPARα = molecular target: T3, PPARα (Homo sapiens, UniProt Q07869); assay: PPARα transactivation activity (GAL4-hPPARα LBD / UASx4-TK-LUC reporter in CV-1 cells); conditions: for Emax: CV-1, in the manner as described in Example 9, Table 26, read-out: PPARα (PPAR activating power); for PPARα transactivation activity: a relative value (control = 100%): CV-1 cells, Table 25
T3 construct: Receptor expression plasmid (GAL4-hPPARα, LBD GAL4-hPPARγ LBD, GAL4-hPPARδ LBD); expressed in transfected cells; host or cells: CV-1 cells
T3 sequence (Q07869 239-466 limits assumed): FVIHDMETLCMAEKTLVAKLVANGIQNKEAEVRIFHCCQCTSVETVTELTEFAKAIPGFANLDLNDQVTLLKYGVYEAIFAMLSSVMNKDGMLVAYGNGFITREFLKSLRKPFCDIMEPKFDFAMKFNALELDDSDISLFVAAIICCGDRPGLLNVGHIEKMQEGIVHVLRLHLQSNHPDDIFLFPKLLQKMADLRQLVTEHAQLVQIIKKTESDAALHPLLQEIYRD
Procedure: as §1, §5, §6, §7, §2, §3, §4

Row | Structure (SMILES) | Emax (PPARδ) [%] | Emax (PPARγ) [%] | Emax (PPARα) [%] | PPARδ transactivation activity: a relative value (control = 100%) (PPARδ; CV-1 cells) [%] | PPARγ transactivation activity: a relative value (control = 100%) (PPARγ) [%] | PPARα transactivation activity: a relative value (control = 100%) (PPARα; compound at 10^−5 M) [%] | further results
1 | CC(C)c1oc(-c2ccc3ccccc3c2O)nc1CCC(=O)c1ccc(OC(C)(C)C(=O)O)cc1 [Example 7-9, 2-[4-[3-[2-(1-Hydroxy-2-naphthyl)-5-isopropyl-4-oxazolyl]propionyl]phenyloxy]-2-methylpropionic acid] | 80 ± 5 | 5 ± 1 | 8 |  |  |  | 
2 | CCCc1oc(-c2ccc(Cl)cc2)nc1CCC(=O)c1ccc(OC(C)(C)C(=O)O)cc1 [Example 2, 2-[4-[3-[2-(4-Chlorophenyl)-5-propyl-4-oxazolyl]propionyl]phenyloxy]-2-methylpropionic acid] |  |  |  | 93 ± 4 | 51 ± 3 | 75 ± 4 | 
3 | CC(C)c1oc(-c2ccc(-c3ccccc3)cc2)nc1CCC(=O)c1ccc(OC(C)(C)C(=O)O)cc1 [Example 7-8, 2-[4-[3-[2-(4-Biphenylyl)-5-isopropyl-4-oxazolyl]-propionyl]phenyloxy]-2-methylpropionic acid] | 58 | 26 | 1 |  |  |  | 
4 | CC(C)c1oc(-c2ccccc2Cl)nc1CC=Cc1ccc(OC(C)(C)C(=O)O)cc1 [Example 5, 2-[4-[3-[2-(2-Chlorophenyl)-5-isopropyl-4-oxazolyl]-1-propenyl]phenyloxy]-2-methylpropionic acid] |  |  |  | 114 ± 1 | 36 ± 3 | 52 ± 7 | activity to PPARδ relative to activity to PPARα and γ (selectivity) (PPARδ; CV-1 cells): selectively higher
5 | CC(C)c1oc(-c2ccccc2Cl)nc1CCCc1ccc(OC(C)(C)C(=O)O)cc1 [Example 6, 2-[4-[3-[2-(2-Chlorophenyl)-5-isopropyl-4-oxazolyl]propyl]phenyloxy]-2-methylpropionic acid] |  |  |  | 109 ± 10 | 93 ± 1 | 98 ± 6 | 
6 | CC(C)c1oc(-c2ccccc2Cl)nc1CCC(O)c1ccc(OC(C)(C)C(=O)O)cc1 (stereo not shown) [Example 4, 2-[4-[3-[2-(2-Chlorophenyl)-5-isopropyl-4-oxazolyl]-1-hydroxypropyl]phenyloxy]-2-methylpropionic acid] |  |  |  | 23 | 26 | 35 | 
7 | CC(C)c1oc(-c2ccc(Cl)cc2Cl)nc1CC=Cc1ccc(OC(C)(C)C(=O)O)cc1 [Example 7-10, 2-[4-[3-[2-(2,4-Dichlorophenyl)-5-isopropyl-4-oxazolyl]-1-propenyl]phenyloxy]-2-methylpropionic acid] | 70 | 1 | 3 |  |  |  | 
8 | CC(C)c1oc(-c2cc3ccccc3cc2O)nc1CCC(=O)c1ccc(OC(C)(C)C(=O)O)cc1 [Example 7-11, 2-[4-[3-[2-(3-Hydroxy-2-naphthyl)-5-isopropyl-4-oxazolyl]propionyl]phenyloxy]-2-methylpropionic acid] | 85 ± 1 | 18 ± 4 | 29 ± 3 |  |  |  | 
9 | CC(C)c1oc(-c2cccc(Cl)c2O)nc1CCC(=O)c1ccc(OC(C)(C)C(=O)O)cc1 [Example 7-12, 2-[4-[3-[2-(3-Chloro-2-hydroxyphenyl)-5-isopropyl-4-oxazolyl]propionyl]phenyloxy]-2-methylpropionic acid] | 79 ± 2 | 4 | 8 ± 1 |  |  |  | activity to PPARδ relative to activity to PPARα and γ (selectivity) (PPARδ; CV-1 cells): selectively higher
10 | CC(C)c1oc(-c2ccc(-c3ccccc3)cc2Cl)nc1CCC(=O)c1ccc(OC(C)(C)C(=O)O)cc1 [Example 7-14, 2-[4-[3-[2-(3-Chloro-4-biphenylyl)-5-isopropyl-4-oxazolyl]propionyl]phenyloxy]-2-methylpropionic acid] | 53 | 18 | 2 |  |  |  | 
11 | CC(C)c1oc(-c2ccc(Br)cc2Cl)nc1CCC(=O)c1ccc(OC(C)(C)C(=O)O)cc1 [Example 7-13, 2-[4-[3-[2-(4-Bromo-2-chlorophenyl)-5-isopropyl-4-oxazolyl]propionyl]phenyloxy]-2-methylpropionic acid] | 81 | 3 | 1 |  |  |  | 
12 | CC(C)c1oc(-c2ccccc2Cl)nc1CCC(=O)c1ccc(OC(C)(C)C(=O)O)cc1 [Example 1, 2-[4-[3-[2-(2-Chlorophenyl)-5-isopropyl-4-oxazolyl]propionyl]phenyloxy]-2-methylpropionic acid] |  |  |  | 80 ± 10 | 27 ± 3 | 9 ± 1 | activity to PPARδ relative to activity to PPARα and γ (selectivity) (PPARδ; CV-1 cells): selectively higher
13 | CCCc1c(OCCCOc2ccc(OCC(=O)O)cc2)ccc(C(C)=O)c1O [Example L-165041, reference compound] |  | 1 ± 0.03 | 2 ± 1 |  |  |  | 
14 | Cc1nc(-c2ccc(C(F)(F)F)cc2)sc1CCC(=O)c1ccc(OC(C)(C)C(=O)O)cc1 [Example 8-1, 2-[4-[3-[2-[(4-Trifluoromethyl)phenyl]-4-methyl-5-thiazolyl]propionyl]phenyloxy]-2-methylpropionic acid] |  |  |  |  |  |  | PPARα transactivation activity: a relative value at 10^−5 M (control = 100%) (PPARα; compound at 10^−5 M, control WY-14643 (10^−4M), Table 27): 129% and 126% and 120% and 166%
15 | CC(C)c1oc(-c2cccc(Cl)c2Cl)nc1CCC(=O)c1ccc(OC(C)(C)C(=O)O)cc1 [Example 7-6, 2-[4-[3-[2-(2,3-Dichlorophenyl)-5-isopropyl-4-oxazolyl]propionyl]phenyloxy]-2-methylpropionic acid] | 96 ± 13 | 19 | 8 |  |  |  | PPARδ activating effect (transactivation activity) as compared with L-165041 (PPARδ; CV-1 cells, GAL4-hPPARδ LBD, 40 hours incubation, luciferase activity with 10^-4 M L-165041 set to 100%): same or higher
16 | CCC(C)(Oc1ccc(C(=O)CCc2nc(-c3ccc(Cl)cc3Cl)oc2C(C)C)cc1)C(=O)O (stereo not shown) [Example 7-5, 2-[4-[3-[2-(2,4-Dichlorophenyl)-5-isopropyl-4-oxazolyl]propionyl]phenyloxy]-2-methylbutyric acid] | 58 ± 14 | 2 | 1 |  |  |  | 
